From PubChem BioAssay AID1259407 (Chemical Carcinogenesis Research Information System (CCRIS), 2018) come the findings set out here.

Active and inactive are the calls of the source. The rule behind the calls is not given here.

The data set deals with CCRIS mutagenicity, Ames/micronucleus/aberration tests. The experiment in a line: CCRIS mutagenicity studies.
The mark [1] stands for this setting: Test System: AMES SALMONELLA TYPHIMURIUM, Strain/Indicator: TA98, Metabolic Activation: NONE, Method: PREINCUBATION
Setting [2] is: Test System: AMES SALMONELLA TYPHIMURIUM, Strain/Indicator: TA100, Metabolic Activation: NONE, Method: PREINCUBATION
Where [3] appears, read: Test System: AMES SALMONELLA TYPHIMURIUM, Strain/Indicator: TA1535, Metabolic Activation: NONE, Method: PREINCUBATION
[4] abbreviates: Test System: AMES SALMONELLA TYPHIMURIUM, Strain/Indicator: TA1537, Metabolic Activation: NONE, Method: PREINCUBATION

In the case of `CC(O)CCl` (stereo unspecified), the mutagenic call was “inactive; negative” (Test System: AMES SALMONELLA TYPHIMURIUM, Strain/Indicator: TA97, Metabolic Activation: HAMSTER, LIVER, S-9, AROCLOR 1254 (10%), Method: PREINCUBATION); “inactive; negative” (Test System: AMES SALMONELLA TYPHIMURIUM, Strain/Indicator: TA97, Metabolic Activation: NONE, Method: PREINCUBATION); “inactive; negative” (Test System: AMES SALMONELLA TYPHIMURIUM, Strain/Indicator: TA97, Metabolic Activation: RAT, LIVER, S-9, AROCLOR 1254 (10%), Method: PREINCUBATION); “inactive; negative” (Test System: AMES SALMONELLA TYPHIMURIUM, Strain/Indicator: TA98, Metabolic Activation: HAMSTER LIVER S-9, AROCLOR 1254 (10%), Method: PREINCUBATION); “inactive; negative” (Test System: AMES SALMONELLA TYPHIMURIUM, Strain/Indicator: TA98, Metabolic Activation: HAMSTER, LIVER, S-9, AROCLOR 1254 (10%), Method: PREINCUBATION); “inactive; negative” (Test System: AMES SALMONELLA TYPHIMURIUM, Strain/Indicator: TA98, Metabolic Activation: NONE, Method: FLUCTUATION (MICROTITER)). The mutagenic call under setting [1] is “inactive; negative”; the mutagenic call (Test System: AMES SALMONELLA TYPHIMURIUM, Strain/Indicator: TA98, Metabolic Activation: RAT LIVER S-9, AROCLOR 1254 (10%), Method: PREINCUBATION) is “inactive; negative”; the mutagenic call (Test System: AMES SALMONELLA TYPHIMURIUM, Strain/Indicator: TA98, Metabolic Activation: RAT LIVER S-9, AROCLOR 1254, Method: FLUCTUATION (MICROTITER)) is “inactive; negative”; the mutagenic call (Test System: AMES SALMONELLA TYPHIMURIUM, Strain/Indicator: TA98, Metabolic Activation: RAT, LIVER, S-9, AROCLOR 1254 (10%), Method: PREINCUBATION) is “inactive; negative”; the mutagenic call (Test System: AMES SALMONELLA TYPHIMURIUM, Strain/Indicator: TA100, Metabolic Activation: HAMSTER, LIVER, S-9, AROCLOR 1254 (10%), Method: PREINCUBATION) was “inactive; negative”; the mutagenic call under setting [2] is “inactive; negative”. Also, the mutagenic call was “inactive; negative” (Test System: AMES SALMONELLA TYPHIMURIUM, Strain/Indicator: TA100, Metabolic Activation: RAT, LIVER, S-9, AROCLOR 1254 (10%), Method: PREINCUBATION); “active; positive” (Test System: AMES SALMONELLA TYPHIMURIUM, Strain/Indicator: TA1535, Metabolic Activation: HAMSTER LIVER S-9, AROCLOR 1254 (10%), Method: PREINCUBATION); “active; positive” (Test System: AMES SALMONELLA TYPHIMURIUM, Strain/Indicator: TA1535, Metabolic Activation: HAMSTER, LIVER, S-9, AROCLOR 1254 (10%), Method: PREINCUBATION); “active; positive” under setting [3]; “active; positive” (Test System: AMES SALMONELLA TYPHIMURIUM, Strain/Indicator: TA1535, Metabolic Activation: RAT LIVER S-9, AROCLOR 1254 (10%), Method: PREINCUBATION); “active; positive” (Test System: AMES SALMONELLA TYPHIMURIUM, Strain/Indicator: TA1535, Metabolic Activation: RAT, LIVER, S-9, AROCLOR 1254 (10%), Method: PREINCUBATION). The mutagenic call is, setting by setting: (Test System: AMES SALMONELLA TYPHIMURIUM, Strain/Indicator: TA1537, Metabolic Activation: HAMSTER LIVER S-9, AROCLOR 1254 (10%), Method: PREINCUBATION) “inactive; negative”; (Test System: AMES SALMONELLA TYPHIMURIUM, Strain/Indicator: TA1537, Metabolic Activation: HAMSTER, LIVER, S-9, AROCLOR 1254 (10%), Method: PREINCUBATION) “inactive; negative”; (Test System: AMES SALMONELLA TYPHIMURIUM, Strain/Indicator: TA1537, Metabolic Activation: NONE, Method: FLUCTUATION (MICROTITER)) “inactive; negative”; under setting [4], “inactive; negative”; (Test System: AMES SALMONELLA TYPHIMURIUM, Strain/Indicator: TA1537, Metabolic Activation: RAT LIVER S-9, AROCLOR 1254 (10%), Method: PREINCUBATION) “inactive; negative”; (Test System: AMES SALMONELLA TYPHIMURIUM, Strain/Indicator: TA1537, Metabolic Activation: RAT LIVER S-9, AROCLOR 1254, Method: FLUCTUATION (MICROTITER)) “inactive; negative”. For the same molecule, the mutagenic call (Test System: AMES SALMONELLA TYPHIMURIUM, Strain/Indicator: TA1537, Metabolic Activation: RAT, LIVER, S-9, AROCLOR 1254 (10%), Method: PREINCUBATION) is “inactive; negative”; the mutagenic call (Test System: AMES SALMONELLA TYPHIMURIUM, Strain/Indicator: TA7001, Metabolic Activation: NONE, Method: FLUCTUATION (MICROTITER)) is “inactive; negative”; the mutagenic call (Test System: AMES SALMONELLA TYPHIMURIUM, Strain/Indicator: TA7001, Metabolic Activation: RAT LIVER S-9, AROCLOR 1254, Method: FLUCTUATION (MICROTITER)) was “inactive; negative”; the mutagenic call (Test System: AMES SALMONELLA TYPHIMURIUM, Strain/Indicator: TA7002, Metabolic Activation: NONE, Method: FLUCTUATION (MICROTITER)) is “inactive; negative”; the mutagenic call (Test System: AMES SALMONELLA TYPHIMURIUM, Strain/Indicator: TA7002, Metabolic Activation: RAT LIVER S-9, AROCLOR 1254, Method: FLUCTUATION (MICROTITER)) is “inactive; negative”; the mutagenic call (Test System: AMES SALMONELLA TYPHIMURIUM, Strain/Indicator: TA7003, Metabolic Activation: NONE, Method: FLUCTUATION (MICROTITER)) was “inactive; negative”. Also, the mutagenic call is, setting by setting: (Test System: AMES SALMONELLA TYPHIMURIUM, Strain/Indicator: TA7003, Metabolic Activation: RAT LIVER S-9, AROCLOR 1254, Method: FLUCTUATION (MICROTITER)) “inactive; negative”; (Test System: AMES SALMONELLA TYPHIMURIUM, Strain/Indicator: TA7004, Metabolic Activation: NONE, Method: FLUCTUATION (MICROTITER)) “inactive; negative”; (Test System: AMES SALMONELLA TYPHIMURIUM, Strain/Indicator: TA7004, Metabolic Activation: RAT LIVER S-9, AROCLOR 1254, Method: FLUCTUATION (MICROTITER)) “inactive; negative”; (Test System: AMES SALMONELLA TYPHIMURIUM, Strain/Indicator: TA7005, Metabolic Activation: NONE, Method: FLUCTUATION (MICROTITER)) “inactive; negative”; (Test System: AMES SALMONELLA TYPHIMURIUM, Strain/Indicator: TA7005, Metabolic Activation: RAT LIVER S-9, AROCLOR 1254, Method: FLUCTUATION (MICROTITER)) “inactive; negative”; (Test System: AMES SALMONELLA TYPHIMURIUM, Strain/Indicator: TA7006, Metabolic Activation: NONE, Method: FLUCTUATION (MICROTITER)) “inactive; negative”. In addition, the mutagenic call (Test System: AMES SALMONELLA TYPHIMURIUM, Strain/Indicator: TA7006, Metabolic Activation: RAT LIVER S-9, AROCLOR 1254, Method: FLUCTUATION (MICROTITER)) was “inactive; negative”.

For `Fc1c(F)c(F)c2ncccc2c1F`, the mutagenic call (Test System: AMES SALMONELLA TYPHIMURIUM, Strain/Indicator: TA100, Metabolic Activation: RAT LIVER S-9, PHENOBARBITAL AND 5,6-BENZOFLAVONE, Method: PREINCUBATION) is “active; positive”.

On to `NC(N)=O`, for which the mutagenic call reads like this: under setting [1], “inactive; negative”; (Test System: AMES SALMONELLA TYPHIMURIUM, Strain/Indicator: TA98, Metabolic Activation: RAT, LIVER, S-9, KC 500, Method: PREINCUBATION) “inactive; negative”; under setting [2], “inactive; negative”; (Test System: AMES SALMONELLA TYPHIMURIUM, Strain/Indicator: TA100, Metabolic Activation: RAT, LIVER, S-9, KC 500, Method: PREINCUBATION) “inactive; negative”; under setting [3], “inactive; negative”; (Test System: AMES SALMONELLA TYPHIMURIUM, Strain/Indicator: TA1535, Metabolic Activation: RAT, LIVER, S-9, KC 500, Method: PREINCUBATION) “inactive; negative”. Also, the mutagenic call is, setting by setting: under setting [4], “inactive; negative”; (Test System: AMES SALMONELLA TYPHIMURIUM, Strain/Indicator: TA1537, Metabolic Activation: RAT, LIVER, S-9, KC 500, Method: PREINCUBATION) “inactive; negative”; (Test System: AMES SALMONELLA TYPHIMURIUM, Strain/Indicator: TA1538, Metabolic Activation: NONE, Method: PREINCUBATION) “inactive; negative”; (Test System: AMES SALMONELLA TYPHIMURIUM, Strain/Indicator: TA1538, Metabolic Activation: RAT, LIVER, S-9, KC 500, Method: PREINCUBATION) “inactive; negative”; (Test System: E. COLI, Strain/Indicator: WP2 UVRA, Metabolic Activation: NONE, Method: PREINCUBATION) “inactive; negative”; (Test System: E. COLI, Strain/Indicator: WP2 UVRA, Metabolic Activation: RAT, LIVER, S-9, KC 500, Method: PREINCUBATION) “inactive; negative”. Besides, the mutagenic call (Test System: MOUSE LYMPHOMA, Strain/Indicator: L5178Y (TK+/TK-), Metabolic Activation: NONE, Method: SUSPENSION/PLATE) was “active; positive”.
